Experimental data reported in ChEMBL document CHEMBL1140941 (J Med Chem, 2009).
Activity calls are given as the source filed them. No cut-off for these calls is given here.

How the values were obtained:
[1] = biological target: T1, Peroxisome proliferator-activated receptor delta (Homo sapiens) (UniProt Q03181); assay: Antagonist activity at PPARdelta expressed in african green monkey CV1 cells co-expressing MH100 by luciferase reporter gene assay; format: functional, cell-based; conditions: CV-1
T1 sequence (whole entry): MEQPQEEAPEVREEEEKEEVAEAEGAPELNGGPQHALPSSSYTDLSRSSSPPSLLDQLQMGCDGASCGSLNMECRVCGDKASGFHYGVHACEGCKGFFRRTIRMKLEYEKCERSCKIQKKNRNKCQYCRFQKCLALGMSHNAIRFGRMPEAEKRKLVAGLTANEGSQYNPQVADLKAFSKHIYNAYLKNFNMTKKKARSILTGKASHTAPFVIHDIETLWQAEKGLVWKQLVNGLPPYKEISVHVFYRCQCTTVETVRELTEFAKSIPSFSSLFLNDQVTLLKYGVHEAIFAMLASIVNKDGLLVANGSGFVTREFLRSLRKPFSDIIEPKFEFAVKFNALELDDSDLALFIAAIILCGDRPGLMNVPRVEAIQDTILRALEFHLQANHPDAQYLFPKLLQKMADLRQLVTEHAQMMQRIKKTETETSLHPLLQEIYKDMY

[2] = biological target: T2, Androgen receptor (Homo sapiens) (UniProt P10275); assay: Antagonist activity at gal-AR expressed in african green monkey CV1 cells co-expressing MH100 with GRIP1 co-factor at 10 uM by luciferase reporter gene assay; format: functional, cell-based; conditions: CV-1
T2 sequence (whole entry): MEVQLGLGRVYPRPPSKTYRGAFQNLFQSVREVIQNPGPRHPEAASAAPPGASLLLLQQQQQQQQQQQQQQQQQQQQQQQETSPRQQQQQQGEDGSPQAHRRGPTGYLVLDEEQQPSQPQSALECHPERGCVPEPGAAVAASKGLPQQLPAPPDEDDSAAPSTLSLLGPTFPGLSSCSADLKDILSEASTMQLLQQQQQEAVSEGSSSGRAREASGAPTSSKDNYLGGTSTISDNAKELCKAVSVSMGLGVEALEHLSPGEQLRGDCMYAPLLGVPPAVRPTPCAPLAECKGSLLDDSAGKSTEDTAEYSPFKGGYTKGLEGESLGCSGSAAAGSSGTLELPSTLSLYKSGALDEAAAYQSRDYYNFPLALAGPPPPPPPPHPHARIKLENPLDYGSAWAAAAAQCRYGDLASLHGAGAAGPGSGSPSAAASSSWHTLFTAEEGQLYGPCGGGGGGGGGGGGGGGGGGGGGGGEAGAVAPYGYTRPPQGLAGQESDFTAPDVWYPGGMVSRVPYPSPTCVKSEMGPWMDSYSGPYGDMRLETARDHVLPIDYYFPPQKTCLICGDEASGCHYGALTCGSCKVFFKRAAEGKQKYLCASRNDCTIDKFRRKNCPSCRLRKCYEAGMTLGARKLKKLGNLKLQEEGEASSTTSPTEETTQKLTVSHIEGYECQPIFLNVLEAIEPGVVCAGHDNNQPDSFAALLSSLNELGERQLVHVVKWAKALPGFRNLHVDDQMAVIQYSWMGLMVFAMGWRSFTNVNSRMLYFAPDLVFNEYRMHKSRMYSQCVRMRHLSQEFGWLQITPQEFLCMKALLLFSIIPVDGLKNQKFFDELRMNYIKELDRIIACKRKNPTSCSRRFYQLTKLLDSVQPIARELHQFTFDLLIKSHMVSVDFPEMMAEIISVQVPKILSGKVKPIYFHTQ

[3] = biological target: T3, Progesterone receptor (Homo sapiens) (UniProt P06401); assay: Antagonist activity at gal-PR expressed in african green monkey CV1 cells co-expressing MH100 at 10 uM by luciferase reporter gene assay; format: functional, cell-based; conditions: CV-1
T3 sequence (whole entry): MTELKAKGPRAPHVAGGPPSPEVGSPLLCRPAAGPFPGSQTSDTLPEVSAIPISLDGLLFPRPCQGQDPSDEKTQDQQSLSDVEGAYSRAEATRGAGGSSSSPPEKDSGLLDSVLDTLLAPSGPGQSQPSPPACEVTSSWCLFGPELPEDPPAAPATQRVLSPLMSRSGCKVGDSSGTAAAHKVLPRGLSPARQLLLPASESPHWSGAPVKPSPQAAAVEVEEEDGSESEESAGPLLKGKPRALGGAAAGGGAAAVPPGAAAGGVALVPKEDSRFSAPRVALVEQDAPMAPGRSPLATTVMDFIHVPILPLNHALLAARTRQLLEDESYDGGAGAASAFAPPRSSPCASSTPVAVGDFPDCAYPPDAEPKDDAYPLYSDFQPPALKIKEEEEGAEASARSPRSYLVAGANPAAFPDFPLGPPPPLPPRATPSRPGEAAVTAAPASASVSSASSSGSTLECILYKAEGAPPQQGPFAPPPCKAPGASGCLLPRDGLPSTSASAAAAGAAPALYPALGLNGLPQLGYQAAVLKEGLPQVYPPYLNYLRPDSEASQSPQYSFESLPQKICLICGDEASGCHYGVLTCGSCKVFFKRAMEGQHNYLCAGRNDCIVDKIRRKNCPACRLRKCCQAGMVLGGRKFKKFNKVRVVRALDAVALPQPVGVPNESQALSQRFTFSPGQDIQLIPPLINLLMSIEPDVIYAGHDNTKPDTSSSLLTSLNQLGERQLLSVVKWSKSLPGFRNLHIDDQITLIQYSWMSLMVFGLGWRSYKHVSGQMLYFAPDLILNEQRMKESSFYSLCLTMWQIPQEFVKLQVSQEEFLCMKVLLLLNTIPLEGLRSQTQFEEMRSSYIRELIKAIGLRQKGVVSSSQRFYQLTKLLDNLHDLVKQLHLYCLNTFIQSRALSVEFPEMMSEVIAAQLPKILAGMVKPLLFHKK

[4] = AUC (0 to t) in CD rat at 3 mg/kg, iv; format: ADME, organism-based; parameters: dose 3 mg/kg, route intravenous; conditions: plasma
[5] = test system: Mus musculus; assay: Reduction of plasma triglyceride level in western diet-induced hyperlipidemia LDLR knockout mouse model at 1 mg/kg, po administered for 6 weeks; format: functional; parameters: scale not given: the % may be the effect or the level left
[6] = test system: Mus musculus; assay: Reduction of plasma triglyceride level in western diet-induced hyperlipidemia LDLR knockout mouse model at 3 mg/kg, po administered for 6 weeks; format: functional; parameters: scale not given: the % may be the effect or the level left
[7] = test system: Mus musculus; assay: Reduction of plasma total cholesterol level in western diet-induced hyperlipidemia LDLR knockout mouse model at 1 mg/kg, po administered for 6 weeks; format: functional; parameters: scale not given: the % may be the effect or the level left

Activity [1]: inactive
inhibition [2]: 26%
inhibition [3]: 14%
AUC(0-t) [4]: 19.1 µM·h
Structure (SMILES): CC(C)OC(=O)C1=CN(C(=O)c2ccc(F)c(F)c2)CC(C)(C)c2c1[nH]c1ccccc21 [TUROFEXORATE ISOPROPYL]
Activity [5]: 19%
Activity [6]: 39%
Activity [7]: 23%
